Assay results reported in ChEMBL document CHEMBL5338706, “Discovery of a potent and selective proteolysis targeting chimera (PROTAC) degrader of NSD3 histone methyltransferase” (Eur J Med Chem, 2022).
Calls of active or inactive are those of the source. The rule behind the calls is not given here.

How the values were obtained:
[1] = Downregulation of CDC25A level in human NCI-H520 cells at […] by measuring fold change by Western blot analysis relative to control; assay type: functional; settings: dose 7.5 µM
NCI-H1703 [2] = assay: Induction of apoptosis in human NCI-H1703 cells assessed as early apoptotic cells at […] measured after 72 hrs by PI/Annexin-V staining based flow cytometry analysis (reference value: 1.47% ); assay type: functional; settings: dose 7.5 µM
[3] = target: T1, Histone-lysine N-methyltransferase NSD2 (Homo sapiens) (UniProt O96028); assay: Induction of NSD2 degradation in human A549 cells at 5 to 10 uM incubated for 72 hrs by Western blot analysis; assay type: cell-based; settings: dose 5-10 µM
T1 sequence (whole entry): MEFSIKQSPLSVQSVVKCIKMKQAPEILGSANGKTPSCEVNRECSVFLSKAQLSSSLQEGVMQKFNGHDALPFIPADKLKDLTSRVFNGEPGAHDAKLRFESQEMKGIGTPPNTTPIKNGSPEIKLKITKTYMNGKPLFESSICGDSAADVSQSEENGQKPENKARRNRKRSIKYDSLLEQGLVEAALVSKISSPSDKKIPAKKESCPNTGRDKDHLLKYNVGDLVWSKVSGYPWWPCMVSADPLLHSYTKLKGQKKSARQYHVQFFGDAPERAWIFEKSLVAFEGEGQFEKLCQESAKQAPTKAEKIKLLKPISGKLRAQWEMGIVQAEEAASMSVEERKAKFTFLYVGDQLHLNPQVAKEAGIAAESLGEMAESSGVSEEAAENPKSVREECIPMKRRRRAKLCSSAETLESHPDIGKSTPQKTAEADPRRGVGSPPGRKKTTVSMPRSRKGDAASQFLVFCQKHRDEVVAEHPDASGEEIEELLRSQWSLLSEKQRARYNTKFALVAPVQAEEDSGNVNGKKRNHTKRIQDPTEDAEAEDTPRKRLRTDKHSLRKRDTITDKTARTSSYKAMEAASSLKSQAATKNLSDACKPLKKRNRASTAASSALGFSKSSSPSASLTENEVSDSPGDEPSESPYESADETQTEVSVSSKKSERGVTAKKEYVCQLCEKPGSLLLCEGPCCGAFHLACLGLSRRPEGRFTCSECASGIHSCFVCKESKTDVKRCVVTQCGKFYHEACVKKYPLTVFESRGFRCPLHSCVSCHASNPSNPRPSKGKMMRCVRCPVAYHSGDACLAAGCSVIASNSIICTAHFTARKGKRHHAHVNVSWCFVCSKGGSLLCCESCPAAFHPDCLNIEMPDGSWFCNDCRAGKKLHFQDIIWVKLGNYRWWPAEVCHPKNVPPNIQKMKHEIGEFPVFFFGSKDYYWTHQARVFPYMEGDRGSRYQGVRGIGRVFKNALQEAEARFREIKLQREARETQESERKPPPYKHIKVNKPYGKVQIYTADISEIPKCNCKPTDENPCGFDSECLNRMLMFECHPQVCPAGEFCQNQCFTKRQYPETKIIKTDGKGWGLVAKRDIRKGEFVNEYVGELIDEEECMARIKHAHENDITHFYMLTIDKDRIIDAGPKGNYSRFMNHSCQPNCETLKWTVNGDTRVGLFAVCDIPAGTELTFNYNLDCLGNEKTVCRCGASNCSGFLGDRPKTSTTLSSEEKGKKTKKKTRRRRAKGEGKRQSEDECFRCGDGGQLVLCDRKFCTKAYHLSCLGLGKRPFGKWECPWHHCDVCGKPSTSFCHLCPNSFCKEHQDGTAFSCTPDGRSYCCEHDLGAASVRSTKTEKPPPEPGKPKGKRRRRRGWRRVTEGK

[4] = target: T2, Histone-lysine N-methyltransferase NSD3 (Homo sapiens) (UniProt Q9BZ95); assay: Induction of NSD3 degradation in human A549 cells assessed as reduction in H3K36me3 methylation incubated for 72 hrs by Western blot analysis; assay type: cell-based; settings: dose 5-10 µM
T2 sequence (whole entry): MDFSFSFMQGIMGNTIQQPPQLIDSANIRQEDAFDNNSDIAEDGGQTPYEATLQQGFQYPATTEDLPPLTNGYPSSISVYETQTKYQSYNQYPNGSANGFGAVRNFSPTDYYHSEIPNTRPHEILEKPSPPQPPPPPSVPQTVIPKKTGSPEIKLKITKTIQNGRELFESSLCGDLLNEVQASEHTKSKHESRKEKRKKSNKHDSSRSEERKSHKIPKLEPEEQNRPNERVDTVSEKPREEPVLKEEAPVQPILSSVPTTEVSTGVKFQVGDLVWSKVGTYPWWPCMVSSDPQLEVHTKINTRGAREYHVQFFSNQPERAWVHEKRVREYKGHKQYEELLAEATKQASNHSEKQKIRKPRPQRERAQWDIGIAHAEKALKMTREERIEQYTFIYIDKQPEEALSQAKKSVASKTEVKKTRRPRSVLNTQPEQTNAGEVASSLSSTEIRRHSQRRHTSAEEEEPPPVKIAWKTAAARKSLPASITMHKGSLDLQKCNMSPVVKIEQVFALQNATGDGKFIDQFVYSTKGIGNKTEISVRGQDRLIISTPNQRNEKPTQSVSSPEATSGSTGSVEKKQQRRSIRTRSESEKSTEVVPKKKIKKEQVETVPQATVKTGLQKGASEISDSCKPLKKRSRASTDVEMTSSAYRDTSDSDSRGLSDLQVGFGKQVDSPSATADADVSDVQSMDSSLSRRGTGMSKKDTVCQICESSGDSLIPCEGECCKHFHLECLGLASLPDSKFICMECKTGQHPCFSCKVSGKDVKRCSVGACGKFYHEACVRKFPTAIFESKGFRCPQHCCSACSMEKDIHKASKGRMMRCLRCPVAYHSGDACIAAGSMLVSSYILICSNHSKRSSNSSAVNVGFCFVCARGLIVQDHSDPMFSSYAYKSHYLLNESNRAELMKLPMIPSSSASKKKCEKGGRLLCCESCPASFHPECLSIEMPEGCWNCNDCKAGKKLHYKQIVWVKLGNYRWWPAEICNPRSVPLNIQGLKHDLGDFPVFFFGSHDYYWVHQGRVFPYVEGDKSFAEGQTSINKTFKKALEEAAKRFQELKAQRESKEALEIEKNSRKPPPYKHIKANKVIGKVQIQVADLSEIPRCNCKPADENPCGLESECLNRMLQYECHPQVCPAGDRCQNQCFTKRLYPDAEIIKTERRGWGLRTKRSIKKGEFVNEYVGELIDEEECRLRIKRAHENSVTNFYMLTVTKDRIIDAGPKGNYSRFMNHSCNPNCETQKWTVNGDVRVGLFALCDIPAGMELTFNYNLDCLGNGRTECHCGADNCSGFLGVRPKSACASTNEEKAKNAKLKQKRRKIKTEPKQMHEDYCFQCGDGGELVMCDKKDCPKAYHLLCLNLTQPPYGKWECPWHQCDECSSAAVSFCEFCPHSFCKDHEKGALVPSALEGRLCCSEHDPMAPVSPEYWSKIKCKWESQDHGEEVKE

NCI-H1703 [5] = assay: Induction of apoptosis in human NCI-H1703 cells assessed as early apoptotic cells at 3 uM measured after 72 hrs by PI/Annexin-V staining based flow cytometry analysis (reference value: 1.47% ); assay type: functional

Structure (SMILES): Cc1cc(CNCCCCCCCCCCC(=O)N[C@H](C(=O)N2C[C@H](O)C[C@H]2C(=O)N[C@@H](C)c2ccc(-c3scnc3C)cc2)C(C)(C)C)cc(C)c1-c1ncn(C)c1-c1ccnc2cc(F)ccc12
- fold change (FC) [1]: 0.6
- Activity (NCI-H1703 [2]): 3.68%
- Activity [3]: inactive
- Activity [4]: Dose-Dependent Effect
- Activity (NCI-H1703 [5]): 1.48%
